The subject of this assay is tyrosinase from human melanocytes. As to the kind of experiment: dopa-oxidase activity of tyrosinase from human melanocytes. It counts as cell-based. How it is done: Human melanocytes were prepared and cultured and then introduced into media containing different concentrations of 5-(n-octanoyl)salicylic acid (0.5 μM, 1 μM, 2 μM and 5 μM).
After three days, the melanocytes were "trypsinizated" in a 0.05%/0.02% trypsin/EDTA mixture in a phosphate buffer (50 mM at pH 6.8), washed three times in phosphate buffer containing 1% (w/v) of TRITON X-100 and subjected to ultrasound. After centrifuging, samples were withdrawn and mixed with 5 mM L-DOPA in phosphate buffer. The tyrosinase activity was evaluated by spectrophotometry. The increase in the absorbance at 475 nm is due to the formation of dopachrome from 5 mM DOPA being measured. The absorbance was read on a microplate reader at 25° C. for 60 min.
The activity of the cellular tyrosinase was measured with respect to a calibration range prepared with commercially available tyrosinase.

As to `CCCCCCCC(=O)c1ccc(O)c(C(=O)O)c1` [5-(n-octanoyl)salicylic acid], the “decrease of dopa-oxidase activity of the tyrosinase from the melanocytes” value (concentration of 5 μM, three days) is “more particularly pronounced”. Besides, the “dopa-oxidase activity of the tyrosinase from the melanocytes (percentage of activity with respect to the starting activity, FIG. 1)” value (human melanocytes cultured three days with 0.5 μM, 1 μM, 2 μM and 5 μM, 5 mM L-DOPA, absorbance at 475 nm) is on record as “significantly decreases”.

For the origin of these results see patent publication US5723109A, “Use of salicyclic acid derivatives for depigmenting the skin” (L'Oreal, priority 1995, dated 1998).
